Data reported in patent US20110201623A1, “Crystalline Form Of A Cyclopropyl Benzamide Derivative” (priority 2010, published 2011).

What was measured:
[1] = biological target: human H3 receptor (445 aa) (Homo sapiens, UniProt Q9Y5N1); experiment: Human histamine H3 binding assay with the agonist radioligand [3H]-N-α-methylhistamine; settings: membranes, SPA, 1.5 nmol/L radioligand, pH 7.4, room temperature; read-out: IC50 equivalent of pIC50, inhibition of specific binding of [3H]-N-α-Methyl Histamine to the human H3 receptor (converted)
Protocol: Human Histamine H3 Binding Assay with the Agonist Radioligand [^3H]-N-a-Methylhistamine
The H3 binding assay was used to evaluate the ability of a compound of formula (I) to inhibit [^3H]-N-a-methylhistamine under the conditions as described below: All binding assays were performed in a buffer consisting of 20 mmol/L Hepes, 100 mmol/L NaCl. The pH was set at 7.4 at room temperature. Liquid handling robots were used to prepare, in drug plates, 10 points dose response curves of the compound of formula (I) (3-fold serial dilutions, starting at 10 μmol/L). The assay, performed in 96-well plates, consisted of 100 μL, containing 20 μL of buffer alone for total binding (column #1), 20 μL of imetit (5×) for the non specific binding (column #2), 20 μL of the compound of formula (I) (5×) at varying concentrations (column #3 to #12), plus 20 μL of [3H]-N-a-Methylhistamine (25 000 dpm/well, 1.5 nmol/L) in all wells and finally 60 μL of membranes (20 μg of protein/well) mix is added to start the reaction. Membranes and SPA beads (1000 μg/well) were mixed together and incubated for 30 minutes at room is temperature prior to the start of the assay. […] Plates were then mixed on an orbital mixer, incubated 90 minutes at room temperature, and then read on a Trilux 384™ counter.

[2] = biological target: hH3 receptors (Homo sapiens, UniProt Q9Y5N1); experiment: [35S]GTPγS binding assay, antagonist mode (RαMH EC80); format: biochemical; settings: RαMH at EC80 (30 nmol/L for hH3), membranes, SPA; read-out: IC50 equivalent of pIC50, inhibition of H3 agonist R-α-Methyl-Histamine stimulated [35S]GTPγS binding (converted)
Protocol: Guanosine 5′-O-(3-[^35S]thio)triphosphate [GTPgS] Binding Assay
[^35S]GTPγS binding assay was performed in a buffer consisting of 20 mmol/L Hepes, 100 mmol/L NaCl, 10 mmol/L MgCl2, 3 μg/mL saponine and 10 μmol/L GDP. The pH was set at 7.4 at room temperature. Liquid handling robots were used to prepare, in drug plates, 10 points dose response curves of the compound of formula (I) (3-fold serial dilutions, starting at 1 μmol/L for hH3 receptors and 10 μmol/L for rH3 receptors). The assay, performed in 96-well plates, consisted of 120 μL, containing 20 μL of RαMH (EC80, antagonist mode), 20 μL the compound of formula (I) at varying concentrations, 20 μL of the tracer [^35S]GTPγS (60000 dpm/well, 0.2 nmol/L) and finally 60 μL of membranes (10 μg of protein/well for hH3) mix is added to start the reaction. Membranes, SPA beads (125 μg/well) and GDP were mixed together and incubated for 30 minutes at room temperature prior to the start of the assay. Eight wells were used to define baseline and RαMH EC80 (30 nmol/L for hH3 receptors) define the positive control. Plates were then mixed (2 minutes) on an orbital mixer, incubated 60 minutes at room temperature, and then read on a Trilux 384™ counter.

Chain of hH3 receptors (Q9Y5N1 whole entry): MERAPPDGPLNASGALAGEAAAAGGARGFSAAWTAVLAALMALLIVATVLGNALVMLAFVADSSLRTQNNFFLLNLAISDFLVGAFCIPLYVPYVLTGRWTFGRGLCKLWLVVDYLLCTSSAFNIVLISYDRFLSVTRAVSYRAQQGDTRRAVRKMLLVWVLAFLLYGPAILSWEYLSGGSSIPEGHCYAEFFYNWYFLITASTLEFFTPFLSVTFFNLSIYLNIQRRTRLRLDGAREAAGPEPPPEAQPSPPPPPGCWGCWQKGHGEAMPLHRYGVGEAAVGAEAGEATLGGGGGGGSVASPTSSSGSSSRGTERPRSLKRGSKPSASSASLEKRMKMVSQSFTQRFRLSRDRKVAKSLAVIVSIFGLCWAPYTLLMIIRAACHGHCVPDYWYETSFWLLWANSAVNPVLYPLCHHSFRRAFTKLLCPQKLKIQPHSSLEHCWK
Chain of human H3 receptor (445 aa) (Q9Y5N1 whole entry): as above

IC50 [1]: 13 nM
IC50 [2]: 3 nM
Compound: NC(=O)c1ccc([C@H]2C[C@@H]2C(=O)N2CCN(C3CCC3)CC2)cc1 [Compound (I), 4-{(1S,2S)-2-[(4-cyclobutylpiperazin-1-yl)carbonyl]-cyclopropyl}-benzamide]
